Values joined by “and” are separate entries in the source; they are usually repeats but may differ in a detail not shown here. Equal entries are not always repeated.
How the values were obtained:
PKCγ = PKCγ (Homo sapiens, UniProt P05129); test: Z'-Lyte recombinant enzyme assay, PKCγ; format: biochemical
Description: (§1) Half maximal inhibitory concentrations of Cmpd 1 were determined by Z’-Lyte biochemical assays (Life Technologies SelectScreen™ Kinase Profiling Services, Thermo Fisher Scientific). Kinome selectivity was determined at 1 μM Cmpd 1 concentration against a panel of 119 kinases. The original kinome tree in Fig. 1b was taken from Ref.[68].

PKCδ = PKCδ (Homo sapiens, UniProt Q05655); test: Z'-Lyte recombinant enzyme assay, PKCδ; format: biochemical
Sequence of PKCδ (Q05655 whole entry): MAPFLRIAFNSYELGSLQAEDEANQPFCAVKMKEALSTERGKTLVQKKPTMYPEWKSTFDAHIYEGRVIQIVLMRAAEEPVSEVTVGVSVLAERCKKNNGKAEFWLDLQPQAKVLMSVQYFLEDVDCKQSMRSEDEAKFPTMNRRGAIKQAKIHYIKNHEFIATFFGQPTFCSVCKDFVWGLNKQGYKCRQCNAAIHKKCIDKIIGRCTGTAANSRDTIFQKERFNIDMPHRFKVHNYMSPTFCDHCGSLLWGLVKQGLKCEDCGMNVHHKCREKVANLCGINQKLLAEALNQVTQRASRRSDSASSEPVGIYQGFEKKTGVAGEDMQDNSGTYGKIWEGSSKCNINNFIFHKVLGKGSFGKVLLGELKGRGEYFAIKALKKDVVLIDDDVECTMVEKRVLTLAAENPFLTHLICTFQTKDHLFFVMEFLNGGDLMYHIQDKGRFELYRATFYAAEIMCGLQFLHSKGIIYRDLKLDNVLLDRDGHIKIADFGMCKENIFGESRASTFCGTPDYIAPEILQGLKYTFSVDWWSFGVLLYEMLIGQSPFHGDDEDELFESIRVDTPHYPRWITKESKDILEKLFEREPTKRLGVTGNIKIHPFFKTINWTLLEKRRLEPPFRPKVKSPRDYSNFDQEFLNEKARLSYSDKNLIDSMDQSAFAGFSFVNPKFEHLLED
Description: as §1

PKCζ = target: T1, PKCζ (Homo sapiens, UniProt Q05513); test: Z'-Lyte recombinant enzyme assay, PKCζ; format: biochemical
T1 sequence (Q05513 1-592): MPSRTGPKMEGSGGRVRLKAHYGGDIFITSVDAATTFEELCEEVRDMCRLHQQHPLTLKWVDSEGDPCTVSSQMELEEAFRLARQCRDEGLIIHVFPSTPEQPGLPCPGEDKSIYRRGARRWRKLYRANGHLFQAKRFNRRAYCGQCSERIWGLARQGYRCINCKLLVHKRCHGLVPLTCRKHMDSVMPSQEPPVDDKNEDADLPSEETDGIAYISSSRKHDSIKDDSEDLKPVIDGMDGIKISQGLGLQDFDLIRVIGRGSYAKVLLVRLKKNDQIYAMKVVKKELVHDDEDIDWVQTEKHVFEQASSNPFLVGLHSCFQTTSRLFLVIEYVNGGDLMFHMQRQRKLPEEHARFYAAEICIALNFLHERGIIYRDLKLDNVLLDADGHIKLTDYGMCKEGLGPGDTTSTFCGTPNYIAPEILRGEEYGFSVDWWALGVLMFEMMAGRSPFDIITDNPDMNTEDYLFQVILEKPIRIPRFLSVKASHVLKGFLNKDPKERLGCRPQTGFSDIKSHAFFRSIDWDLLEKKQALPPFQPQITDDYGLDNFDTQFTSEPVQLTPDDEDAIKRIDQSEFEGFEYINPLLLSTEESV
Description: as §1

ZSF1 obese rats [1] = test: 10-week efficacy study with chow dosing; format: in vivo, rat
Text: Male ZSF1 (ZSF1-Lepr^faLepr^cp/Crl) lean rats (strain code #379) and ZSF1 obese rats (strain code #378) were obtained from Charles River Laboratories (Wilmington, MA). Male rats for all groups were obtained at 8–9 weeks of age at which time they were switched to high carbohydrate Purina 5008 chow (27% kcal protein, 17% kcal fat, 57% kcal carbohydrates). At 21–22 weeks of age they were then enrolled in the 10 week study. All groups were maintained on normal Purina 5008 chow for the 10 week study except the Cmpd 1 group, which was provided Purina 5008 chow formulated with 0.744g Cmpd 1 per kg chow (approximately 50 mpk/d Cmpd 1 administration; n = 5 Lean, n = 12 Obese, n = 11 Cmpd 1, n = 11 Food matched—see Fig. 4a). The amount of food provided to the Food matched group each week was determined by the estimated food consumption by the Cmpd 1 group the previous week. For all three ZSF1 obese groups, 3 animals were taken down at study mid-point for an interim analysis. All experimental protocols involving animals were reviewed and approved by the Pfizer Inc. Institutional Animal Care and Use Committee (IACUC). All experiments were performed in accordance with relevant guidelines and regulations, and all methods are reported in accordance with ARRIVE guidelines (https://arriveguidelines.org).
Male ZSF1 obese rats that had been maintained on Purina 5008 chow were switched to Purina 5008 chow with or without 0.744 g/kg Cmpd 1 at 22 weeks of age. The study duration was 10 weeks. Estimated food consumption monitored weekly. An additional group of ZSF1 obese rats was included which received an amount of Purina 5008 chow to match the previous week’s estimated food consumption by the Cmpd 1 group. Five male ZSF1 lean littermates served as baseline controls. Intermediate blood samples were taken through tail vein. 24-h urine samples at weeks 0, 5 and 10 were collected from animals in metabolic cages. Animals were sacrificed by CO2 asphyxiation followed by blood collection via cardiac puncture and tissues fixation in 10% neutral buffered formalin for histology. Unfixed inguinal white adipose tissue was also collected at study termination for downstream molecular analyses.
All assays except the insulin assay were run with the ADVIA 1800 Chemistry System (Siemens Medical Systems Diagnostics, Tarrytown, NY, USA). The serum insulin assay was run using a SpectraMax® Plus384 Absorbance Microplate Reader (Molecular Devices San Jose, CA, USA). Siemens Medical System assay kits 10376501, 10311891, 10335892, and 10335891 were used for cholesterol, low density lipoprotein (LDL)-cholesterol, triglycerides, and glucose, respectively. Roche HDL-C Reagent 3rd generation assay kit 4713257190 was used for high density lipoprotein (HDL)-cholesterol assay. For insulin, an ALPCO Diagnostics assay kit 80-INSMS-E01 was used.
Samples of formalin-fixed, paraffin embedded (FFPE) liver and kidney were sectioned and stained for Hematoxylin and Eosin (HE) and evaluated microscopically by a board-certified veterinary pathologist blinded to the treatment groups. In the kidney, microscopic features were assigned an end stage renal disease (ESRD) severity score of 1–5 (minimal to severe) using the following criteria: Grade 1 (minimal): < 10% of parenchyma affected, few glomeruli affected and no Bowman’s capsule thickening with only few protein casts and basophilic tubules observed; Grade 2 (mild): 10–25% of renal parenchyma affected, there is scattered thickening of Bowman’s capsule, +/− synechiation; Grade 3 (moderate): 26–50% of renal parenchyma affected, glomerular and tubulointerstitial changes are present; Grade 4 (marked): 51–75% of renal parenchyma affected, glomerular and tubulointerstitial changes are present; Grade 5 (severe): > 75% of renal parenchyma affected, glomerular and tubulointerstitial changes are present. […]

ZSF1 obese rats [2] = test: 7-day food consumption and body weight study, Cmpd 1 chow, ZSF1 obese rats; format: in vivo, rat; details: 7 days
Text: To evaluate food consumption in different rat strains, cohorts of 10 male ZSF1 obese rats, 8 male ZSF1 lean littermate rats, and 10 age-matched male Sprague Dawley (SD) rats were divided into two groups and fed chow with or without 0.744 g/kg Cmpd 1 (Cmpd 1 chow) for 7 days.

Cc1ncc(F)c(Nc2n[nH]c3c2CN(C(=O)N2C[C@@H](C)N(CC4CCOCC4)C[C@@H]2C)C3(C)C)n1 [Cmpd 1, 5-[(2S,5R)-2,5-dimethyl-4-(tetrahydro-2H-pyran-4-ylmethyl)piperazin-l-yl]carbonyl-N-(5-fluoro-2-methylpyrimidin-4-yl)-6,6-dimethyl-1,4,5,6-tetrahydropyrrolo[3,4-c]pyrazol-3-amine] was tested, and the IC50 (PKCγ) was 96 nM, the IC50 (PKCδ) was 1550 nM and the IC50 (PKCζ) was over 10000 nM. The “Progressive decline in renal function (uMALB:creatinine ratio, 24-h urinary protein excretion)” value (ZSF1 obese rats [1]; 10-week study, same in Food matched group) was “virtually halted”, the “Average body weight at study termination” value (ZSF1 obese rats [1]; 10 weeks Cmpd 1 chow) was 504 g and 504 ± 35 g and the “Estimated food consumption at study termination” value (ZSF1 obese rats [1]; 10 weeks Cmpd 1 chow) was 31 g/day. For the same molecule, the “Body weight less than Lean animals at study termination” value (ZSF1 obese rats [1]; 10 weeks, not statistically different) was “approximately 7%”, the “Estimated average food consumption, first three days” value (ZSF1 obese rats [1]; Cmpd 1 chow approx. 50 mpk/day) was 22 g/day and the “Reduction in food consumption versus Obese group, first three days” value (ZSF1 obese rats [1]; Cmpd 1 chow approx. 50 mpk/day) was 27%. The “Animals with liver macrovacuolation score of 0” value (ZSF1 obese rats [1]; after 10 weeks of dosing, score 0–3) was “five of eight”, the “ESRD score at study termination” value (ZSF1 obese rats [1]; blinded histology, versus Obese, comparable to Food matched group) was “reduced comparably” and the “Serum cholesterol and triglyceride profile versus Obese group” value (ZSF1 obese rats [1]; non-fasting serum) was “improved”. The Serum glucose levels (ZSF1 obese rats [1]; non-fasting serum) was “elevated”, the “Serum AST versus Obese group” value (ZSF1 obese rats [1]; non-fasting, 5 weeks, statistically significant, not evident at 10 weeks) was “increased” and the “Serum ALT versus Obese group” value (ZSF1 obese rats [1]; non-fasting, 10 weeks, statistically significant) was “reduced”. The Serum insulin (ZSF1 obese rats [1]; non-fasting, week 5 study midpoint) was 0.62 (± 0.35) ng/mL, the “ESRD severity grade of representative kidney image” value (ZSF1 obese rats [1]; study endpoint, representative image Fig. 6c) was “Grade 1 (Grade 1 (minimal): < 10% of parenchyma affected)” and the “Average body weight at study start” value (ZSF1 obese rats [1]; study start, 21–22 weeks of age) was 564 g. The iWAT weight (ZSF1 obese rats [1]; study termination) was 29 ± 5.5 g, the “Increase in adipocyte size in iWAT” value (ZSF1 obese rats [1]; study termination, histology, not in Food matched group) was “blunted” and the “Average CD45+ cell staining area in iWAT” value (ZSF1 obese rats [1]; study termination, immunohistochemistry) was 0.045 ± 0.025%. For the same molecule, the Liver weights (ZSF1 obese rats [1]; study termination, primarily reflected overall body weight differences) was “reduced”, the Average food consumption (ZSF1 obese rats [2]) was 24 g/day and the Body weight change (ZSF1 obese rats [2]) was “lost weight”. The “Reduction in food consumption versus no-drug chow” value (ZSF1 obese rats [2]) was 37%.
